Data as given in patent US20060223747A1, “Therapeutic agent for soft tissue sarcoma” (Fujisawa Pharmaceutical Co. Ltd., priority 2003, published 2006).

Legend:
[1] = test system: HS-SY-2 synovial sarcoma cell strain (SYT-SSX protein expressing); assay: MTT cell growth assay, HS-SY-2 synovial sarcoma cell strain; type: cell-based; settings: HS-SY-2 cells; FK228 0.1-100 nM; exposure 24, 48, 96 hr; FIG. 1
From the text: (§1) An SYT-SSX protein expressing synovial sarcoma cell line HS-SY-2 (established and kindly provided by Dr. Hiroshi Sonobe, Department of Pathology, National Fukuyama Hospital), YaFuSS (established and kindly provided by Dr. Junya Toguchida, Department of Tissue Regeneration, Institute for Frontier Medical Sciences, Kyoto University) and SYO-1 (established and kindly provided by Dr. Akira Kawai, Department of Orthopedics, Faculty of Medicine, Okayama University (now Department of Orthopedics, National Cancer Center)) were cultured in DMEM (Dulbecco's modified Eagle's medium) containing 10% (v/v) fetal bovine serum (FBS), 100 U/ml penicillin and 100 μg/ml streptomycin at 37° C. under 5% CO2 environment. These cells were plated and cultured for 24 hr, detached with 0.25% (w/v) trypsin and recovered. For cell growth ability, an MTT analysis kit (Colorimetric (MTT) assay for cell survival and proliferation kit of CHEMICON International, Inc.) was used. Each cell strain was plated in a 96 well microtiter plate at 10^3 cell/well, and after culture for 24 hr, exposed to a 0.1% (v/v) dilute ethanol solution of FK228 at a concentration distribution of 0.1 nM, 0.2 nM, 1 nM, 50 nM and 100 nM, and 0.1% (v/v) ethanol (Et-OH 0.1% in FIG. 1) as a control. After exposure for 24 hr, 48 hr and 96 hr, each culture was passed through a 570 nm filter and the absorbance was measured. […]

[2] = test system: YaFuSS synovial sarcoma cell strain (SYT-SSX protein expressing); assay: MTT cell growth assay, YaFuSS synovial sarcoma cell strain; type: cell-based; settings: YaFuSS cells; FK228 0.1-100 nM; exposure 24, 48, 96 hr; FIG. 2
From the text: as §1

[3] = test system: SYO-1 synovial sarcoma cell strain (SYT-SSX protein expressing); assay: MTT cell growth assay, SYO-1 synovial sarcoma cell strain; type: cell-based; settings: SYO-1 cells; FK228 0.1-100 nM; exposure 24, 48, 96 hr; FIG. 3
From the text: as §1

[4] = test system: SYO-1 synovial sarcoma cell strain (SYT-SSX protein expressing); assay: Tumor volume after subcutaneous implantation of SYO-1 cells in nude mice; type: in vivo, BALB/C/nu/nu nude mice; settings: for antitumor activity in vivo against SYT-SSX protein expressing cells: summary statement
Experimental: Inbred male (BALB/C/nu/nu) nude mice were supplied by Charles River Japan, Inc. The animals were all fed and handled according to the Animal Test Guideline, Animal Resources Division, Advanced Science Research Center, Okayama University. FK228 was administered after 10 days from subcutaneous implantation of 10^5 cells each of the SYO-1 cell strain. The tumor volume was assumed by measuring two diameters perpendicular to each other using calipers and from the following formula (tumor volume=⅙π [(d1×d2)^3/2] (wherein d1 and d2 are two perpendicular diameters)). The dose was evaluated by intravenously administering a dilute FK228 solution (50 μl, 10% HCO60 which is polyoxyethylene (60) hydrogenated castor oil, diluted with physiological saline) at 0 mg/kg, 1.6 mg/kg or 3.2 mg/kg to 20 animals, and as a control, a 3.2 mg/kg dilute FK228 solution was intravenously injected to 7 animals free of tumor implantation. The administration was performed 3 times every 4 days, the tumor volume was also measured every 4 days, as well as after completion of the administration.

[5] = test system: HTB93 synovial sarcoma cell strain (SW982; not expressing SYT-SSX protein); assay: MTT cell growth assay (survival rate), HTB93 synovial sarcoma cell strain; type: cell-based; settings: for antitumor activity against synovial sarcoma cell strain not expressing SYT-SSX protein: summary statement, HTB93 (SW982)
Experimental: An SYT-SSX protein non-expressing synovial sarcoma cell line HTB93 (purchased from ATCC: American Type Culture Collection) was cultured in DMEM (Dulbecco's modified Eagle's medium) containing 10% (v/v) fetal bovine serum (FBS), 100 U/ml penicillin and 100 μg/ml streptomycin at 37° C. under 5% CO2 environment. These cells were plated and cultured for 24 hr, detached with 0.25% (w/v) trypsin and recovered. For cell growth ability, an MTT analysis kit (Colorimetric MTT) assay for cell survival and proliferation kit of CHEMICON International, Inc.) was used. Each cell strain was plated in a 96 well microtiter plate at 2×10^3 cell/well, and after culture for 24 hr, exposed to a 0.1% (v/v) dilute ethanol solution of FK228 at a concentration distribution of 0.001 nM, 0.01 nM, 0.1 nM, 0.5 nM, 1 nM, 5 nM, 10 nM, 50 nM and 100 nM, 0.1% (v/v) ethanol as a control and the medium alone as a blank. After exposure for 24 hr, 48 hr, 72 hr and 96 hr, each culture was passed through a 570 nm filter and the absorbance was measured. All were performed with n=4.
For the results, average values of the FK228 addition sample, control and blank were taken, and using numerical values obtained by subtracting a blank value from the value of the FK228 addition sample or control, a percentage corresponding to the ratio of the numerical value of the FK228 addition sample relative to that of the control was taken as survival rate (%).

[6] = test system: SYT-SSX protein expressing cells (HS-SY-2, YaFuSS, SYO-1); assay: In vitro antitumor activity against SYT-SSX protein expressing cells (summary statement); type: cell-based
From the text: In an attempt to solve the above-mentioned problems, the present inventors have considered that, in synovial sarcoma, formation of the aforementioned complex of SYT-SSX protein, a chromatin remodeling-associated protein and histone deacetylase (HDAC)-associated protein enhances histone deacetylase activity, which in turn has an effect on the canceration, development and/or proliferation, of synovial sarcoma, and have conducted intensive studies of the effect of histone deacetylase inhibition on various synovial sarcoma cell strains (HS-SY-2, YaFuSS, SYO-1) that express SYT-SSX protein. […]

histone deacetylase = settings: reported in JP-B-7-64872; Experimental Cell Research (1998) 241, 126-133; cited from earlier work

Structure (SMILES) | in vitro antitumor effect [1] | in vitro antitumor effect [2] | in vitro antitumor effect [3] | in vivo antitumor effect (tumor volume) ([4]; SYO-1 subcutaneous implant, i.v. 1.6 or 3.2 mg/kg, 3 times every 4 days, FIG. 4) | antitumor activity in vivo against SYT-SSX protein expressing cells [4] | in vitro antitumor effect (survival rate) ([5]; HTB93 cells, FK228 0.001-100 nM, exposure 24, 48, 72, 96 hr, FIG. 5) | antitumor activity against synovial sarcoma cell strain not expressing SYT-SSX protein [5] | antitumor activity in vitro against SYT-SSX protein expressing cells [6] | histone deacetylase inhibition (histone deacetylase)
C/C=C1\NC(=O)[C@H]2CSSCC/C=C/[C@H](CC(=O)N[C@H](C(C)C)C(=O)N2)OC(=O)[C@H](C(C)C)NC1=O [FK228] | showed an in vitro antitumor effect | showed an in vitro antitumor effect | showed an in vitro antitumor effect | showed an in vivo antitumor effect | potent antiturnor activity | showed an in vitro antitumor effect | potent antitumor activity | potent antiturnor activity | selectively inhibits histone deacetylase
C/C=C1\NC(=O)C2CSSCC/C=C/C(CCNC(C(C)C)C(=O)N2)OC(=O)C(C(C)C)NC1=O (stereo not shown) [compound A] |  |  |  |  |  |  |  |  | selectively inhibits histone deacetylase
CC(/C=C/C(=O)NO)=C\[C@@H](C)C(=O)c1ccc(N(C)C)cc1 [tricostatin A, Trichostatin A, reference compound] |  |  |  |  | potent antiturnor activity |  | potent antitumor activity | potent antiturnor activity | 
